The source of these data is patent US9000162B2, “5,8-difluoro-4-(2-(4-(heteroaryloxy)-phenyl)ethylamino)quinazolines and their use as agrochemicals” (Dow AgroSciences LLC, priority 2008, dated 2015).

What all share (assay type): in vivo
The subject of assay [1] is Magnaporthe grisea = Pyricularia oryzae (PYRIOR). As to the kind of experiment: whole plant or invertebrate. The conditions noted are these: foliar, read-out: Activity against fungal diseases PYRIOR.
Assay [2] relates to Septoria tritici (SEPTTR). Briefly: Septoria blotch of wheat foliar protectant test. The conditions noted are these: Zymoseptoria tritici, read-out: Activity against fungal diseases SEPTTR; for pest or weed control at 200 ppm: 200 ppm foliar, inoculated one day after treatment; for pest or weed control at 25 ppm: foliar, Tested at 25 ppm (footnote b). As for the experimental part:
(§1) The plants were inoculated with the fungus one day after treatment. ***=80-100% control; **=50-79% control; *=0-49% control. It will be understood by those in the art that the efficacy of the compounds against the foregoing fungi establishes the general utility of the compounds as fungicides. The activity of the compounds as effective fungicides was determined by applying the compounds to plants and observing control of fungal disease. […] All plants were inoculated with spores of the fungus the day after treatment, then incubated in an environment conducive to disease development. Disease severity was evaluated 4 to 25 days later, depending on the speed of disease development. The following experiments were performed in the laboratory to determine the fungicidal efficacy of the compounds of the invention. […] Each pot contained 3-10 seedlings. These plants were sprayed until wet with the formulated test compound. On the following day, the leaves were inoculated with an aqueous spore suspension of Septoria tritici and the plants were kept in high humidity (one day in a dark dew chamber followed by three days in a lighted dew chamber) to permit spores to germinate and infect the leaf. The plants were then transferred to a greenhouse until disease developed on untreated control plants. Table 1 presents the activity of typical compounds of the present invention when evaluated in these experiments. The effectiveness of the test compounds at controlling disease when sprayed on leaves was determined by assessing the severity of disease on treated plants, then converting the severity to percent control based on the level of disease on untreated, inoculated plants.

Assay [3] deals with Pseudoperonospora cubensis (PSPECU). Briefly: Cucumber downy mildew foliar protectant test. Particulars: 200 ppm foliar, inoculated one day after treatment, read-out: Activity against fungal diseases PSPECU. As for the experimental part: The plants were inoculated with the fungus one day after treatment. ***=80-100% control; **=50-79% control; *=0-49% control. It will be understood by those in the art that the efficacy of the compounds against the foregoing fungi establishes the general utility of the compounds as fungicides. The activity of the compounds as effective fungicides was determined by applying the compounds to plants and observing control of fungal disease. […] All plants were inoculated with spores of the fungus the day after treatment, then incubated in an environment conducive to disease development. Disease severity was evaluated 4 to 25 days later, depending on the speed of disease development. The following experiments were performed in the laboratory to determine the fungicidal efficacy of the compounds of the invention. Cucumber Downy Mildew (Causal Agent Pseudoperonospora cubensis; Bayer Code […]): Cucumber plants (variety “Bush Champion' or 'Bush Pickle Hybrid') were grown from seed in a soil-less peat-based potting mixture (Metromix) until the first true leaf was 20-80% expanded. Each pot contained 1 seedling. These plants were sprayed until wet with the formulated test compound. On the following day, the leaves were inoculated with an aqueous suspension of downy mildew sporangia and the plants were kept in high humidity for one day to permit sporangia to germinate and infect the leaf. The plants were then incubated in a growth chamber until disease developed on untreated control plants. Table 1 presents the activity of typical compounds of the present invention when evaluated in these experiments. The effectiveness of the test compounds at controlling disease when sprayed on leaves was determined by assessing the severity of disease on treated plants, then converting the severity to percent control based on the level of disease on untreated, inoculated plants.

Assay [4] concerns Puccinia recondita tritici (PUCCRT). Briefly: Leaf rust of wheat foliar protectant test. Particulars: 200 ppm foliar, inoculated one day after treatment, read-out: Activity against fungal diseases PUCCRT. As for the experimental part:
as §1, with “3-8” for “3-10”, “compounds.” for “compound.”, “Puccinia recondita” for “Septoria”, “overnight” for “(one day in a dark dew chamber followed by three days in a lighted dew chamber)”

As to `COc1cc(CCNc2ncnc3c(F)ccc(F)c23)ccc1Oc1cc(C(F)(F)F)cc[n+]1[O-]` [Compound 59], the pest or weed control at 200 ppm in assay [1], in assay [2], in assay [3] and in assay [4] was 80 to 100% in each case.
For the molecule `COc1cc(CCNc2ncnc3c(F)ccc(F)c23)ccc1Oc1c(F)cnc(C(F)(F)F)c1F` [Compound 50], the pest or weed control at 200 ppm in assay [1], in assay [2], in assay [3] and in assay [4] was 80 to 100% in each case.
For the molecule `CC(F)(F)c1cc[n+]([O-])c(Oc2ccc(CCNc3ncnc4c(F)ccc(F)c34)cc2)c1` [Compound 10], the pest or weed control at 200 ppm fell in the range of 50 to 79% in assay [1], 80 to 100% in assay [2], 80 to 100% in assay [3] and 80 to 100% in assay [4].
On to `COc1ccc(CCNc2ncnc3c(F)ccc(F)c23)c(C)c1C` [Compound 20], for which the pest or weed control at 200 ppm in assay [1] lay in the range of 50 to 79%; in assay [2] it was 50 to 79%; in assay [3], 80 to 100%; in assay [4], 80 to 100%.
For the molecule `COc1ccc(CCNc2ncnc3c(F)cc(F)c(F)c23)cc1Cl` [Compound 86], the pest or weed control at 200 ppm lay within 0 to 49% in assay [1], 0 to 49% in assay [2], 80 to 100% in assay [3] and 0 to 49% in assay [4].
As for `Fc1ccc(F)c2c(NCCc3ccc(Oc4cc(C(F)(F)F)ccn4)c(Cl)c3)ncnc12` [Compound 90], the pest or weed control at 200 ppm in assay [1], in assay [2], in assay [3] and in assay [4] was 80 to 100% each time.
For the molecule `COc1ccc(CCNc2ncnc3c(F)ccc(F)c23)cc1Cl` [Compound 85], the pest or weed control at 200 ppm in assay [1] is 50 to 79%; in assay [2] it was 0 to 49%; in assay [3], 80 to 100%; in assay [4], 0 to 49%.
Consider `N#Cc1ccnc(Oc2ccc(CCNc3ncnc4c(F)ccc(F)c34)cc2)c1` [Compound 2], for which the pest or weed control at 200 ppm in assay [1] was 80 to 100%; in assay [2], 0 to 49%; in assay [3], 80 to 100%; in assay [4], 80 to 100%.
As to `Fc1nc(C(F)(F)F)nc(Oc2ccc(CCNc3ncnc4c(F)ccc(F)c34)cc2)c1F` [Compound 100], the pest or weed control at 200 ppm in assay [1] is 0 to 49%; in assay [2], 0 to 49%; in assay [3], 80 to 100%; in assay [4] it was 0 to 49%.
In the case of `COc1ccc(CCNc2ncnc3c(F)ccc(F)c23)cc1Br` [Compound 32], the pest or weed control at 200 ppm was in the range of 50 to 79% in assay [1], 0 to 49% in assay [2], 80 to 100% in assay [3] and 80 to 100% in assay [4].
Take `COc1cc(CCNc2ncnc3c(F)ccc(F)c23)ccc1O` [Compound 14]: the pest or weed control at 200 ppm was in the range of 0 to 49% in assay [1], 50 to 79% in assay [3] and 0 to 49% in assay [4]. Besides, the pest or weed control at 25 ppm in assay [2] was 0 to 49%.
Consider `Cc1cc(CCNc2ncnc3c(F)ccc(F)c23)ccc1Oc1nc(F)c(F)c(N)c1F` [Compound 99], for which the pest or weed control at 200 ppm in assay [1] was in the range of 80 to 100%; in assay [2] it was 0 to 49%; in assay [3], 80 to 100%; in assay [4], 80 to 100%.
Consider `Cc1cc(CCNc2ncnc3c(F)ccc(F)c23)ccc1O` [Compound 24], for which the pest or weed control at 200 ppm in assay [1], in assay [2], in assay [3] and in assay [4] was 0 to 49% in each case.
For the molecule `Fc1ccc(F)c2c(NCCc3ccc(Oc4cc(Cl)ncn4)cc3)ncnc12` [Compound 127], the pest or weed control at 200 ppm in assay [1] was 80 to 100%; in assay [2], 0 to 49%; in assay [3], 80 to 100%; in assay [4], 80 to 100%.
For `Oc1cc(CCNc2ncnc3c(F)ccc(F)c23)ccc1Oc1cc(C(F)(F)F)ccn1` [Compound 56], the pest or weed control at 200 ppm fell in the range of 80 to 100% in assay [1], 50 to 79% in assay [2], 80 to 100% in assay [3] and 80 to 100% in assay [4].
With `COc1cc(CCNc2ncnc3c(F)ccc(F)c23)ccc1Oc1ncc(F)c(C(F)(F)F)c1F` [Compound 53], the pest or weed control at 200 ppm in assay [1], in assay [2], in assay [3] and in assay [4] was 80 to 100% in each case.
In the case of `CCOc1cc(CCNc2ncnc3c(F)ccc(F)c23)ccc1Oc1cc(C(F)(F)F)ccn1` [Compound 60], the pest or weed control at 200 ppm in assay [1], in assay [2], in assay [3] and in assay [4] was 80 to 100% throughout.
Regarding `N#Cc1cc(CCNc2ncnc3c(F)ccc(F)c23)ccc1Oc1cc(C(F)(F)F)ccn1` [Compound 41], the pest or weed control at 200 ppm in assay [1], in assay [3] and in assay [4] was 80 to 100% in each case. The pest or weed control at 25 ppm in assay [2] was 50 to 79%.
For the molecule `CCc1cc(CCNc2ncnc3c(F)ccc(F)c23)ccc1Oc1cc(C(F)(F)F)ccn1` [Compound 66], the pest or weed control at 200 ppm in assay [1], in assay [2], in assay [3] and in assay [4] was 80 to 100% throughout.
On to `Cc1cc(Oc2cc(C(F)(F)F)ncn2)ccc1CCNc1ncnc2c(F)ccc(F)c12` [Compound 118], for which the pest or weed control at 200 ppm in assay [1], in assay [3] and in assay [4] was 80 to 100% each time. Moreover, the pest or weed control at 25 ppm in assay [2] lay in the range of 80 to 100%.
Take `Cc1cc(CCNc2ncnc3c(F)ccc(F)c23)c(C)cc1O` [Compound 18]: the pest or weed control at 200 ppm in assay [1] lay within 0 to 49%; in assay [2] it was 0 to 49%; in assay [3], 0 to 49%; in assay [4], 50 to 79%.
Consider `[O-][n+]1ccc(C(F)(F)F)cc1Oc1ccc(CCNc2ncnc3c(F)ccc(F)c23)cc1` [Compound 54], for which the pest or weed control at 200 ppm in assay [1], in assay [2], in assay [3] and in assay [4] was 80 to 100% in each case.
Take `[O-][n+]1ccc(C(F)(F)F)cc1Oc1ccc(CCNc2ncnc3c(F)cc(F)c(F)c23)cc1` [Compound 75]: the pest or weed control at 200 ppm in assay [1], in assay [2], in assay [3] and in assay [4] was 80 to 100% in each case.
